According to patent publication US20120157452A1, “1H-PYRAZOLO[3,4-B] PYRIDINE COMPOUNDS FOR INHIBITING RAF KINASE” (GENENTECH, INC., priority 2009, published 2012):

Molecular target: T1, V600E full-length B-Raf (Homo sapiens, UniProt P15056, V600E)
T1 construct: made in house; host or cells: Sf9 insect cells (baculovirus)
Experiment: B-Raf IC50 assay: incorporation of radio labeled phosphate from [γ-33P]ATP into FSBA-modified wild-type MEK
Format: biochemical
Description: Determining the activity of Raf in the sample is possible by a number of direct and indirect detection methods (US 2004/0082014). Activity of human recombinant B-Raf protein may be assessed in vitro by assay of the incorporation of radio labeled phosphate to recombinant MAP kinase (MEK), a known physiologic substrate of B-Raf, according to US 2004/0127496 and WO 03/022840. The activity/inhibition of V600E full-length B-Raf was estimated by measuring the incorporation of radio labeled phosphate from [γ-^33]ATP into FSBA-modified wild-type MEK (see Biological Example 1).
Activity of human recombinant B-Raf protein may be assessed in vitro by assay of the incorporation of radio labeled phosphate to recombinant MAP kinase (MEK), a known physiologic substrate of B-Raf, according to US 2004/0127496 and WO 03/022840. Catalytically active human recombinant B-Raf protein is obtained by purification from sf9 insect cells infected with a human B-Raf recombinant baculovirus expression vector.
The activity/inhibition of V600E full-length B-Raf was estimated by measuring the incorporation of radio labeled phosphate from [γ-^33]ATP into FSBA-modified wild-type MEK. The 30-μL, assay mixtures contained 25 mM Na Pipes, pH 7.2, 100 mM KCl, 10 mM MgCl2, 5 mM β-glycerophosphate, 100 μM Na Vanadate, 4 μM ATP, 500 nCi [γ-^33P]ATP, 1 μM FSBA-MEK and 20 nM V600E full-length B-Raf. Incubations were carried out at 22° C. in a Costar 3365 plate (Corning). Prior to the assay, the B-Raf and FSBA-MEK were preincubated together in assay buffer at 1.5× (20 μL of 30 nM and 1.5 μM, respectively) for 15 minutes, and the assay was initiated by the addition of 10 μL of […]. Following the 60-minute incubation, the assay mixtures were quenched by the addition of 100 μL of 25% TCA, the plate was mixed on a rotary shaker for 1 minute, and the product was captured on a Perkin-Elmer GF/B filter plate using a Tomtec Mach III Harvester. After sealing the bottom of the plate, 35 μL of Bio-Safe II (Research Products International) scintillation cocktail were added to each well and the plate was top-sealed and counted in a Topcount NXT (Packard).

[1] = 4 μM ATP, 60-minute incubation, representative data of multiple tests

T1 sequence (P15056 whole entry V600E): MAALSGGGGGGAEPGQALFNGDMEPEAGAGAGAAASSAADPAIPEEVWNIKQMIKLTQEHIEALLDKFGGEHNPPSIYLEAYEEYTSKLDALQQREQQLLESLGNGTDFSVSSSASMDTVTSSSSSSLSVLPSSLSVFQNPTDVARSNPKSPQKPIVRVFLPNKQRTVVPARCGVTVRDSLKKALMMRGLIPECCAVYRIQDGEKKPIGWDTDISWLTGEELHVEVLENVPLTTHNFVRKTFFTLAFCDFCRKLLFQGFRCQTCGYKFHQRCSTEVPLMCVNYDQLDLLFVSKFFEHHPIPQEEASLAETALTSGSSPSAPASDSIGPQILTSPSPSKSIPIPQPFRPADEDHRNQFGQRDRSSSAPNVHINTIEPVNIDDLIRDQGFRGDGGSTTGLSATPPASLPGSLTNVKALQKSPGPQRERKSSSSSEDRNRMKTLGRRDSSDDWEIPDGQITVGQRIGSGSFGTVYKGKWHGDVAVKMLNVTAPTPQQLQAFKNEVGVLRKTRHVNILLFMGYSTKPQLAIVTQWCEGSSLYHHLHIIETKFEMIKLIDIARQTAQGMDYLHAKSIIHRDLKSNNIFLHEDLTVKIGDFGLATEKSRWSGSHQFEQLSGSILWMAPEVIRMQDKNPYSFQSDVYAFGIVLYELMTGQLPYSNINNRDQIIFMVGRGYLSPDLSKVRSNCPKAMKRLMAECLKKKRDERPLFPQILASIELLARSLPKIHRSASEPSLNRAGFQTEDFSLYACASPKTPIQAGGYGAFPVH

SMILES	IC50 [1] [nM]	IC50 (bound stated) [nM]
COc1n[nH]c2ncc(NC(=O)c3c(Cl)ccc(OCc4cc(C)on4)c3F)cc12 [Example 61, 6-chloro-2-fluoro-N-(3-methoxy-1H-pyrazolo[3,4-b]pyridin-5-yl)-3-((5-methylisoxazol-3-yl)methoxy)benzamide]	80.1	< 100
CC1(c2n[nH]c3ncc(NC(=O)c4c(Cl)ccc(OCc5ccccc5)c4F)cc23)CC1 [Example 20, 3-(benzyloxy)-6-chloro-2-fluoro-N-(3-(1-methylcyclopropyl)-1H-pyrazolo[3,4-b]pyridin-5-yl)benzamide]	3.48	< 100
COc1n[nH]c2ncc(NC(=O)c3c(Cl)ccc(OCc4ccncc4)c3F)cc12 [Example 39, 6-chloro-2-fluoro-N-(3-methoxy-1H-pyrazolo[3,4-b]pyridin-5-yl)-3-(pyridin-4-ylmethoxy)benzamide]	64.2	< 100
COc1n[nH]c2ncc(NC(=O)c3c(C)ccc(OCc4ccc(Cl)cc4)c3F)cc12 [Example 72, 3-(4-chlorobenzyloxy)-2-fluoro-N-(3-methoxy-1H-pyrazolo[3,4-b]pyridin-5-yl)-6-methylbenzamide]	0.4	< 100
COc1n[nH]c2ncc(NC(=O)c3c(Cl)ccc(OCc4ccncn4)c3F)cc12 [Example 40, 6-chloro-2-fluoro-N-(3-methoxy-1H-pyrazolo[3,4-b]pyridin-5-yl)-3-(pyrimidin-4-ylmethoxy)benzamide]	27	< 100
COc1n[nH]c2ncc(NC(=O)c3c(Cl)ccc(OCc4ccc(S(C)(=O)=O)cc4)c3F)cc12 [Example 49]	3.91	< 100
COc1n[nH]c2ncc(NC(=O)c3c(Cl)ccc(OCc4cccc5[nH]ccc45)c3F)cc12 [Example 76, 3-((1H-indol-4-yl)methoxy)-6-chloro-2-fluoro-N-(3-methoxy-1H-pyrazolo[3,4-b]pyridin-5-yl)benzamide]	13	< 100
COc1n[nH]c2ncc(NC(=O)c3c(C)ccc(OCc4ccc(Cl)cn4)c3F)cc12 [Example 74, 3-((5-chloropyridin-2-yl)methoxy)-2-fluoro-N-(3-methoxy-1H-pyrazolo[3,4-b]pyridin-5-yl)-6-methylbenzamide]	0.51	< 100
CC(=O)Nc1n[nH]c2ncc(NC(=O)c3c(Cl)ccc(OCc4ccccc4)c3F)cc12 [Example 78, N-(3-acetamido-1H-pyrazolo[3,4-b]pyridin-5-yl)-3-(benzyloxy)-6-chloro-2-fluorobenzamide]	5.19	< 100
CNc1n[nH]c2ncc(NC(=O)c3c(Cl)ccc(OCc4ccccc4)c3F)cc12 [Example 11, 3-benzyloxy-6-chloro-2-fluoro-N-(3-(methylamino)-1H-pyrazolo[3,4-b]pyridin-5-yl)benzamide]	7.03	< 100
COc1n[nH]c2ncc(NC(=O)c3c(Cl)ccc(OCc4cncnc4)c3F)cc12 [Example 68, 6-chloro-2-fluoro-N-(3-methoxy-1H-pyrazolo[3,4-b]pyridin-5-yl)-3-(pyrimidin-5-ylmethoxy)benzamide]	658	
CC(C)c1n[nH]c2ncc(NC(=O)c3c(Cl)ccc(OCc4ccccc4)c3F)cc12 [Example 10, 3-(benzyloxy)-6-chloro-2-fluoro-N-(3-isopropyl-1H-pyrazolo[3,4-b]pyridin-5-yl)benzamide]	2.29	< 100
COc1n[nH]c2ncc(NC(=O)c3c(Cl)ccc(OCc4ccccc4)c3F)cc12 [Example 4, 3-(benzyloxy)-6-chloro-2-fluoro-N-(3-methoxy-1H-pyrazolo[3,4-b]pyridin-5-yl)benzamide]	0.62	< 100
COc1n[nH]c2ncc(NC(=O)c3c(Cl)ccc(OCc4cccc(F)c4)c3F)cc12 [Example 28, 6-chloro-2-fluoro-3-(3-fluorobenzyloxy)-N-(3-methoxy-1H-pyrazolo[3,4-b]pyridin-5-yl)benzamide]	0.84	< 100
COc1n[nH]c2ncc(NC(=O)c3c(Cl)ccc(OCc4cccc(C)n4)c3F)cc12 [Example 38, 6-chloro-2-fluoro-N-(3-methoxy-1H-pyrazolo[3,4-b]pyridin-5-yl)-3-((6-methylpyridin-2-yl)methoxy)benzamide]	15.1	< 100
COc1n[nH]c2ncc(NC(=O)c3c(Cl)ccc(OCc4cccc(Cl)c4)c3F)cc12 [Example 50, 6-chloro-3-(3-chlorobenzyloxy)-2-fluoro-N-(3-methoxy-1H-pyrazolo[3,4-b]pyridin-5-yl)benzamide]	1.22	< 100
COc1n[nH]c2ncc(NC(=O)c3c(Cl)ccc(OCc4cnccn4)c3F)cc12 [Example 57, 6-chloro-2-fluoro-N-(3-methoxy-1H-pyrazolo[3,4-b]pyridin-5-yl)-3-(pyrazin-2-ylmethoxy)benzamide]	26	< 100
COc1n[nH]c2ncc(NC(=O)c3c(C)ccc(OCc4ccc(C(F)(F)F)cc4)c3F)cc12 [Example 73, 2-fluoro-N-(3-methoxy-1H-pyrazolo[3,4-b]pyridin-5-yl)-6-methyl-3-(4-(trifluoromethyl)benzyloxy)benzamide]	0.86	< 100
COCCOc1n[nH]c2ncc(NC(=O)c3c(Cl)ccc(OCc4ccccc4)c3F)cc12 [Example 13, 3-(benzyloxy)-6-chloro-2-fluoro-N-(3-(2-methoxyethoxy)-1H-pyrazolo[3,4-b]pyridin-5-yl)benzamide]	1.91	< 100
COc1n[nH]c2ncc(NC(=O)c3c(Cl)ccc(OCc4ncccn4)c3F)cc12 [Example 41, 6-chloro-2-fluoro-N-(3-methoxy-1H-pyrazolo[3,4-b]pyridin-5-yl)-3-(pyrimidin-2-ylmethoxy)benzamide]	152	< 500
O=C(Nc1cnc2[nH]nc(OCCF)c2c1)c1c(Cl)ccc(OCc2ccccc2)c1F [Example 18, 3-(benzyloxy)-6-chloro-2-fluoro-N-(3-(2-fluoroethoxy)-1H-pyrazolo[3,4-b]pyridine-5-yl)benzamide]	0.82	< 100
O=C(Nc1cnc2[nH]nc(-c3ccco3)c2c1)c1c(Cl)ccc(OCc2ccccc2)c1F [Example 9, 3-(benzyloxy)-6-chloro-2-fluoro-N-(3-(furan-2-yl)-1H-pyrazolo[3,4-b]pyridin-5-yl)benzamide]	1.17	< 100
CCOc1n[nH]c2ncc(NC(=O)c3c(Cl)ccc(OCc4ccccc4)c3F)cc12 [Example 14, 3-(benzyloxy)-6-chloro-N-(3-ethoxy-1H-pyrazolo[3,4-b]pyridin-5-yl)-2-fluorobenzamide]	0.93	< 100
COc1n[nH]c2ncc(NC(=O)c3cccc(OCc4ccccc4)c3C)cc12 [Example 22, 3-(benzyloxy)-N-(3-methoxy-1H-pyrazolo[3,4-b]yridine-5-yl)-2-methylbenzamide]	585	
COc1n[nH]c2ncc(NC(=O)c3c(Cl)ccc(OCc4scnc4C)c3F)cc12 [Example 52, 6-chloro-2-fluoro-N-(3-methoxy-1H-pyrazolo[3,4-b]pyridin-5-yl)-3-((4-methylthiazol-5-yl)methoxy)benzamide]	70.4	< 100
CC(C)Oc1n[nH]c2ncc(NC(=O)c3c(Cl)ccc(OCc4ccccc4)c3F)cc12 [Example 16, 3-(benzyloxy)-6-chloro-2-fluoro-N-(3-isopropoxy-1H-pyrazolo[3,4-b]pyridin-5-yl)benzamide]	1.71	< 100
COc1n[nH]c2ncc(NC(=O)c3c(F)ccc(OCc4ccccc4)c3Cl)cc12 [Example 33, 3-(benzyloxy)-2-chloro-6-fluoro-N-(3-methoxy-1H-pyrazolo[3,4-b]pyridin-5-yl)benzamide]	17.2	< 100
COc1n[nH]c2ncc(NC(=O)c3c(Cl)ccc(OCc4ccc(C#N)cc4)c3F)cc12 [Example 51, 6-chloro-3-(4-cyanobenzyloxy)-2-fluoro-N-(3-methoxy-1H-pyrazolo[3,4-b]pyridin-5-yl)benzamide]	2.01	< 100
COc1n[nH]c2ncc(NC(=O)c3cc(OCc4ccccc4)ccc3Cl)cc12 [Example 23, 5-(benzyloxy)-2-chloro-N-(3-methoxy-1H-pyrazolo[3,4-b]pyridin-5-yl)benzamide]	4	< 100
COc1n[nH]c2ncc(NC(=O)c3c(C)ccc(OCc4ccccc4)c3F)cc12 [Example 5, 3-(benzyloxy)-2-fluoro-N-(3-methoxy-1H-pyrazolo[3,4-b]pyridin-5-yl)-6-methylbenzamide]	1.06	< 100
